In brackets after ≈: the same amount, converted by molar mass.
Tests used:
[1] = Cmax in Sprague-Dawley rat at 5 mg/kg, po; format: ADME, organism-based; set-up: route oral, dose 5 mg/kg; conditions: in vivo
[2] = Toxicity in po dosed mouse xenografted with human MDA-MB-436 cells administered daily; format: organism-based; conditions: in vivo
[3] = Volume of distribution in CD-1 mouse at 5 mg/kg, po or 5 […], iv; format: ADME, organism-based; conditions: in vivo
[4] = Cmax in CD-1 mouse at 5 mg/kg, iv; format: ADME, organism-based; set-up: route intravenous, dose 5 mg/kg; conditions: in vivo
[5] = Half life in CD-1 mouse at 5 mg/kg, po or 5 mg/kg, iv; format: ADME, organism-based; conditions: in vivo
[6] = Oral bioavailability in CD-1 mouse at 5 mg/kg; format: ADME, organism-based; conditions: in vivo
[7] = Thermodynamic solubility of the compound at pH 1.2; format: physicochemical; conditions: buffer, read-out: Therm_solubility
[8] = In vivo Inhibition of Akt/p70S6K in mouse xenografted with human MDA-MB-436 cells assessed as reduction in S6 phosphorylation in tumor at 25 to 200 mg/kg, po measured after 4 to 8 hrs; format: functional; conditions: dose 25-200 mg/kg, time 4-8 hrs
[9] = molecular target: Voltage-gated inwardly rectifying potassium channel KCNH2 (Homo sapiens, UniProt Q12809); assay: Inhibition of human ERG by patch clamp assay
Voltage-gated inwardly rectifying potassium channel KCNH2, sequence (Q12809 whole entry): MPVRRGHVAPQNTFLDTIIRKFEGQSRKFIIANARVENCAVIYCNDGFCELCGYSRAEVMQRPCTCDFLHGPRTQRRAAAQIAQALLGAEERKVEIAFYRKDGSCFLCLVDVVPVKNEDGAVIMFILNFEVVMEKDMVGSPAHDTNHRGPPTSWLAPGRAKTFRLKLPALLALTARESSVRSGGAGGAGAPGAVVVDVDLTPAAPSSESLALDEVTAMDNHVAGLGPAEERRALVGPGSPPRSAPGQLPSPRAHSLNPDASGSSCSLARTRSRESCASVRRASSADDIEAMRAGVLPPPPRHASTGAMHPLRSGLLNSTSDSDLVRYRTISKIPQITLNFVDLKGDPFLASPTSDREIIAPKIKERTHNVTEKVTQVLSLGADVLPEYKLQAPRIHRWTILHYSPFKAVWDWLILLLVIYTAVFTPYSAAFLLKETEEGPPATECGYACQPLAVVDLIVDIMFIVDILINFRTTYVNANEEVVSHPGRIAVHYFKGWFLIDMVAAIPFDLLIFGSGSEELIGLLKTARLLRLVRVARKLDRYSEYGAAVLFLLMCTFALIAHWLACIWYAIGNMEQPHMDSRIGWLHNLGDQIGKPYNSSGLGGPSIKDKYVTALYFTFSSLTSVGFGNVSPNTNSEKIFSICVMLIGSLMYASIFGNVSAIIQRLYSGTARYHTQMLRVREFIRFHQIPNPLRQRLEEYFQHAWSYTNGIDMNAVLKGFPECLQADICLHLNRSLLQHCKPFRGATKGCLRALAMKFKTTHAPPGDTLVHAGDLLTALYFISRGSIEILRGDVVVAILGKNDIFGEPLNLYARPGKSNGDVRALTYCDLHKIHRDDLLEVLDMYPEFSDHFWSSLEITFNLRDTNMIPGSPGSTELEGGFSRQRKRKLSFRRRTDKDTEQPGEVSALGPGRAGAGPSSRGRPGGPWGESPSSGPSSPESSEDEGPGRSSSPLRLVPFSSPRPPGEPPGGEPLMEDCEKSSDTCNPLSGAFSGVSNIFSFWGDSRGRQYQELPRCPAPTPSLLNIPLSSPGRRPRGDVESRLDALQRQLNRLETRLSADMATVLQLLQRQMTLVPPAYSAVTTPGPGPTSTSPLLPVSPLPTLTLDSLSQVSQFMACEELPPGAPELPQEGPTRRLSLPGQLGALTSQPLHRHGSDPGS

[10] = Intrinsic clearance in human liver microsomes; format: ADME, Microsome; conditions: read-out: CLH
[11] = Cmax in cynomolgus monkey at 0.5 mg/kg, po; format: ADME, organism-based, Macaca fascicularis; set-up: route oral, dose 0.5 mg/kg; conditions: in vivo
[12] = molecular target: T1, Cytochrome P450 2C8 (Homo sapiens, UniProt P10632); assay: Inhibition of CYP2C8 (unknown origin); format: ADME
T1 sequence (P10632 whole entry): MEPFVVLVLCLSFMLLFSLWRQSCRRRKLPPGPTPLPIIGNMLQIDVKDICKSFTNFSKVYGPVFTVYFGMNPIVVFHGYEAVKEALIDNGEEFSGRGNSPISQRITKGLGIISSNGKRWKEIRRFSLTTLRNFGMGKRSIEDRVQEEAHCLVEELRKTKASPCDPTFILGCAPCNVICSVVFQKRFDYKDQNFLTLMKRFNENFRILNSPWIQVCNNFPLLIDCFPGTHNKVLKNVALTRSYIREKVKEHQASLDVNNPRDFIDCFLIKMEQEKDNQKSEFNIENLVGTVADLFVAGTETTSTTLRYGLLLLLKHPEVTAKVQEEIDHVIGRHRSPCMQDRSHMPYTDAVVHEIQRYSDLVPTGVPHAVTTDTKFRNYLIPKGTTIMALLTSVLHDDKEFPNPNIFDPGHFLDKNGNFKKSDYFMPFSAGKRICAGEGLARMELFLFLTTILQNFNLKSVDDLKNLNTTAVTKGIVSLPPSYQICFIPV

[13] = Cmax in CD-1 mouse at 5 mg/kg, po; format: ADME, organism-based; set-up: route oral, dose 5 mg/kg; conditions: in vivo
[14] = AUC in Sprague-Dawley rat at 5 mg/kg, po; format: ADME, organism-based; set-up: dose 5 mg/kg; conditions: in vivo
[15] = Clearance in CD-1 mouse at 5 mg/kg, po or 5 mg/kg, iv; format: ADME, organism-based; conditions: in vivo
[16] = molecular target: Cytochrome P450 3A4 (Homo sapiens, UniProt P08684); assay: Inhibition of CYP3A4 (unknown origin); format: ADME
Cytochrome P450 3A4, sequence (P08684 whole entry): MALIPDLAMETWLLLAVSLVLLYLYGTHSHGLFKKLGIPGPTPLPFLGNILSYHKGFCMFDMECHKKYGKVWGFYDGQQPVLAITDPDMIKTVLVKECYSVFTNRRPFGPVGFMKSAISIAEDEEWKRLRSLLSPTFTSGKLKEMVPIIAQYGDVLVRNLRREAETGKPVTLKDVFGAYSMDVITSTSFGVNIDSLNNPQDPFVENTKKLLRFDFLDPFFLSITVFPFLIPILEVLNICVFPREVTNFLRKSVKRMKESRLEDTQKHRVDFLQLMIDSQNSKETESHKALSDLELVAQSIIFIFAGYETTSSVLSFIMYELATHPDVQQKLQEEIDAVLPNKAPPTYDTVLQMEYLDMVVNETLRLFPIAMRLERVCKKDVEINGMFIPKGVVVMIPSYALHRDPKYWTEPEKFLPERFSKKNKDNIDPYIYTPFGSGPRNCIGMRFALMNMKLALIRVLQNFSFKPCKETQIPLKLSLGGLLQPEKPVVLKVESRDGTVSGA

Compound: NC(=O)c1c(N)ncnc1N1CCC(c2nc(-c3ccc(F)c(C(F)(F)F)c3)cn2CCN2CCC2)CC1
- Cmax [1]: 13 ng/mL
- MTD [2]: ≤ 200 mg/kg
- Vd [3]: 19.3 L/kg
- Cmax [4]: 163 ng/mL
- half-life [5]: 9.3 h
- bioavailability [6]: 63%
- solubility thermodynamic [7]: 2960 µg/mL (≈ 5.56 mM)
- inhibition (INH) [8]: >95%
- IC50 [9]: 17.4 µM
- microsomal CLint [10]: 46 µL/min/mg
- Cmax [11]: 9.7 ng/mL
- IC50 [12]: > 20 µM
- Cmax [13]: 57 ng/mL
- AUC [14]: 43.4 ng·h/mL
- clearance [15]: 25 mL/min/kg
- IC50 [16]: > 20 µM
